Some test systems named below: Escherichia coli UB1005; Bacillus cereus C737; Staphylococcus aureus; Enterobacter cloacae; Streptococcus pneumoniae; Citrobacter sp.; Klebsiella pneumoniae; Escherichia coli EC183; Candida albicans CA2761; Escherichia coli 078; Escherichia coli K99; Escherichia coli K88.
What all share (assay): ≥ marks a high value that may be exact or a test limit, other limits are often not marked, values filed in µg/mL are converted to µM
In assay [1] the test system is Pseudomonas aeruginosa PAO1.
Assay [2] deals with Staphylococcus aureus ATCC 25923.
Assay [3] relates to Escherichia coli ATCC 25922.
The test system of assay [4] is Pseudomonas aeruginosa ATCC 15442.
Assay [5] concerns Acinetobacter baumannii ATCC 15308.
The test system of assay [6] is Serratia marcescens ATCC 4112.
For assay [7], the system named is Staphylococcus aureus CICC 10384.
Assay [8] has as its system Staphylococcus aureus CICC 10306.
The test system of assay [9] is Pseudomonas aeruginosa CICC 21636.
Assay [10] concerns Salmonella enterica subsp. enterica serovar Paratyphi B CICC 10437.
Assay [11] deals with Escherichia coli CICC 10293.
The subject of assay [12] is Enterobacter cloacae CICC 21539.
The subject of assay [13] is Bacillus subtilis CICC 10034.
The test system of assay [14] is Listeria innocua CICC 10417.
The subject of assay [15] is Bacillus subtilis ATCC 6051.
The subject of assay [16] is Vibrio anguillarum ATCC 43305.
Assay [17] concerns Pseudomonas aeruginosa ATCC 27853.
Assay [18] deals with Acinetobacter baumannii ATCC 19606.
The test system of assay [19] is Bacillus cereus ATCC 11778.
Assay [20] concerns Klebsiella pneumoniae ATCC 700603.
The subject of assay [21] is Serratia marcescens ATCC 21202.
Assay [22] deals with Staphylococcus aureus ATCC 29213.
The subject of assay [23] is Streptococcus pyogenes ATCC 19615.
In assay [24] the test system is Salmonella enterica subsp. enterica serovar Enteritidis ATCC 13076.
Assay [25] relates to Candida tropicalis CGMCC 2.1975.
Assay [26] relates to Salmonella enterica subsp. enterica serovar Pullorum C79-13.
In assay [27] the test system is Salmonella enterica subsp. enterica serovar Typhimurium C77-31.
Assay [28] deals with Candida krusei CGMCC 2.1857.
The test system of assay [29] is Salmonella enterica subsp. enterica serovar Typhimurium ATCC 14028.
Assay [30] has as its system Bacillus subtilis CMCC 63501.
In assay [31] the test system is Enterococcus faecalis ATCC 29212.
Assay [32] relates to Candida albicans CGMCC 2.2086.
The subject of assay [33] is Staphylococcus epidermidis ATCC 12228.

In brackets after ≈: the same amount, converted by molar mass.

Turning to `CC[C@H](C)[C@H](NC(=O)[C@H](CC(=O)O)NC(=O)[C@H](Cc1ccccc1)NC(=O)[C@H](CC(C)C)NC(=O)CN)C(=O)N[C@H](C(=O)N[C@@H](CCCCN)C(=O)N[C@@H](CCCCN)C(=O)N[C@H](C(=O)N[C@H](C(N)=O)C(C)C)C(C)C)C(C)C` [GLFDIVKKVV], the MIC in [1] is greater than 115 µM; with Escherichia coli UB1005, no less than 115 µM; against Bacillus cereus C737, no less than 115 µM.
For the molecule `NC(=O)[C@H](CCCN=C(N)N)NC(=O)[C@H](CCCN=C(N)N)NC(=O)[C@H](Cc1c[nH]c2ccccc12)NC(=O)[C@@H]1CCCN1C(=O)[C@H](Cc1c[nH]c2ccccc12)NC(=O)[C@H](Cc1c[nH]c2ccccc12)NC(=O)[C@@H]1CCCN1C(=O)[C@H](Cc1c[nH]c2ccccc12)NC(=O)[C@H](CCCN=C(N)N)NC(=O)[C@H](Cc1c[nH]c2ccccc12)NC(=O)[C@@H]1CCCN1C(=O)[C@H](CCCN=C(N)N)NC(=O)[C@@H](N)CCCN=C(N)N` [RRPWRWPWWPWRR], the MIC in the assay on Staphylococcus aureus is 15.5 µM (≈ 31.2 µg/mL); in assay [2] it was 15.5 µM (≈ 31.2 µg/mL); in the assay on Enterobacter cloacae, no less than 124 µM; against Streptococcus pneumoniae, 15.5 µM (≈ 31.2 µg/mL); in [3], 15.5 µM (≈ 31.2 µg/mL); with Citrobacter sp. it was no less than 124 µM. Besides, the MIC is 15.5 µM (≈ 31.2 µg/mL) in assay [4], greater than 124 µM against Klebsiella pneumoniae and no less than 124 µM in [5].
For `CSCC[C@H](NC(=O)[C@@H](NC(=O)[C@@H](N)CCCN=C(N)N)C(C)C)C(=O)N[C@@H](Cc1ccccc1)C(=O)N[C@@H](CCCCN)C(=O)N[C@@H](Cc1c[nH]c2ccccc12)C(=O)N[C@@H](C)C(=O)O` [RVMFKWA], the MIC is no less than 34.1 µM in assay [6]; 8.54 µM (≈ 8 µg/mL) in [7]; 8.54 µM (≈ 8 µg/mL) in assay [8]; no less than 34.1 µM in assay [9]; no less than 34.1 µM in assay [10]; 17.1 µM (≈ 16 µg/mL) in assay [11]. Also, the MIC in assay [12] was no less than 34.1 µM; in assay [13], no less than 34.1 µM; in [14], 8.54 µM (≈ 8 µg/mL).
For the molecule `CC[C@H](C)[C@H](NC(=O)[C@H](CCCN=C(N)N)NC(=O)[C@H](CCCN=C(N)N)NC(=O)[C@@H](NC(=O)[C@@H](NC(=O)[C@H](CCCN=C(N)N)NC(=O)[C@H](CCCN=C(N)N)NC(=O)[C@H](Cc1ccccc1)NC(=O)[C@H](CCCN=C(N)N)NC(=O)[C@H](CCCN=C(N)N)NC(=O)[C@H](CCCN=C(N)N)NC(=O)[C@H](CCCN=C(N)N)NC(=O)[C@@H](N)CCCN=C(N)N)C(C)C)[C@@H](C)CC)C(=O)N[C@@H](CCCN=C(N)N)C(=O)N[C@@H](CC(C)C)C(=O)N1CCC[C@H]1C(=O)N[C@@H](CCCCN)C(=O)N[C@@H](Cc1ccc(O)cc1)C(=O)N[C@@H](CC(C)C)C(=O)N[C@H](C(=O)N[C@H](C(=O)N[C@@H](CC(N)=O)C(=O)N[C@H](C(=O)N[C@@H](CCC(=O)O)C(=O)O)[C@@H](C)O)[C@@H](C)CC)[C@@H](C)O` [RRRRRFRRVIRRIRLPKYLTINTE], the MIC is 8 µM (≈ 25.8 µg/mL) in assay [2]; no less than 32 µM in [15]; 4 µM (≈ 12.9 µg/mL) in assay [3]; no less than 32 µM in assay [16]; 32 µM (≈ 103 µg/mL) in assay [17]; 2 µM (≈ 6.45 µg/mL) in [18].
For `CC[C@H](C)[C@H](N)C(=O)N[C@H](C(=O)N1CCC[C@H]1C(=O)N[C@@H](CC(C)C)C(=O)N1CCC[C@H]1C(=O)N[C@@H](CC(C)C)C(=O)NCC(=O)N[C@@H](Cc1ccc(O)cc1)C(=O)N[C@@H](Cc1ccccc1)C(=O)N[C@@H](C)C(=O)N[C@@H](CCCCN)C(=O)N[C@@H](CCCCN)C(=O)N1CCC[C@H]1C(=O)O)[C@@H](C)CC` [IIPLPLGYFAKKP], the MIC in assay [19] was no less than 68.6 µM; in [20], greater than 68.6 µM; in assay [21], no less than 68.6 µM; in [22] it was greater than 68.6 µM; in assay [23] it was no less than 68.6 µM; in assay [24] it was no less than 68.6 µM. Besides, the MIC in [3] and in [17] was greater than 68.6 µM throughout.
Consider `CC[C@H](C)[C@H](NC(=O)[C@H](Cc1c[nH]c2ccccc12)NC(=O)[C@H](CCCCN)NC(=O)[C@H](CC(C)C)NC(=O)[C@@H](NC(=O)[C@H](CCCCN)NC(=O)CNC(=O)[C@@H](NC(=O)[C@H](CCCCN)NC(=O)[C@H](CCCCN)NC(=O)[C@H](CC(C)C)NC(=O)[C@@H](N)CCCN=C(N)N)[C@@H](C)CC)C(C)C)C(N)=O` [RLKKIGKVLKWI], for which the MIC in assay [25] is 8 µM (≈ 11.8 µg/mL); in [26], 4 µM (≈ 5.92 µg/mL); in [2], 128 µM (≈ 190 µg/mL); in [27], 8 µM (≈ 11.8 µg/mL); in the assay with Escherichia coli EC183, 2 µM (≈ 2.96 µg/mL); in the assay on Candida albicans CA2761 it was no less than 128 µM. Also, the MIC in [28] turned out to be 16 µM (≈ 23.7 µg/mL); in [29], 16 µM (≈ 23.7 µg/mL); in the assay on Escherichia coli UB1005 it was 16 µM (≈ 23.7 µg/mL); in [22] it was 64 µM (≈ 94.8 µg/mL); in [3], 8 µM (≈ 11.8 µg/mL); with Escherichia coli 078 it was 16 µM (≈ 23.7 µg/mL). In addition, the MIC is 2 µM (≈ 2.96 µg/mL) in [30]; 4 µM (≈ 5.92 µg/mL) against Escherichia coli K99; 64 µM (≈ 94.8 µg/mL) in assay [31]; 4 µM (≈ 5.92 µg/mL) in the assay on Escherichia coli K88; no less than 128 µM in [32]; 64 µM (≈ 94.8 µg/mL) in assay [33].

A word on the MIC: it is the lowest concentration that inhibits growth of the organism.

These data come from DBAASP.
